Assay results from patent US10844077B2, “Thiazolyl-containing compounds for treating proliferative diseases” (Dana-Farber Cancer Institute, Inc., priority 2014, dated 2020).
Values joined by “and” are separate entries in the source; they are usually repeats but may differ in a detail not shown here. Equal entries are not always repeated.

What was measured:
Assay in all cases: KINATIV assay
Type in all cases: cell-based
Settings in all cases: 1 μM, 90 minutes, BCWM.1 cells
ACK = ACK (Homo sapiens (Human), UniProt Q07912)
Chain of ACK (Q07912 whole entry): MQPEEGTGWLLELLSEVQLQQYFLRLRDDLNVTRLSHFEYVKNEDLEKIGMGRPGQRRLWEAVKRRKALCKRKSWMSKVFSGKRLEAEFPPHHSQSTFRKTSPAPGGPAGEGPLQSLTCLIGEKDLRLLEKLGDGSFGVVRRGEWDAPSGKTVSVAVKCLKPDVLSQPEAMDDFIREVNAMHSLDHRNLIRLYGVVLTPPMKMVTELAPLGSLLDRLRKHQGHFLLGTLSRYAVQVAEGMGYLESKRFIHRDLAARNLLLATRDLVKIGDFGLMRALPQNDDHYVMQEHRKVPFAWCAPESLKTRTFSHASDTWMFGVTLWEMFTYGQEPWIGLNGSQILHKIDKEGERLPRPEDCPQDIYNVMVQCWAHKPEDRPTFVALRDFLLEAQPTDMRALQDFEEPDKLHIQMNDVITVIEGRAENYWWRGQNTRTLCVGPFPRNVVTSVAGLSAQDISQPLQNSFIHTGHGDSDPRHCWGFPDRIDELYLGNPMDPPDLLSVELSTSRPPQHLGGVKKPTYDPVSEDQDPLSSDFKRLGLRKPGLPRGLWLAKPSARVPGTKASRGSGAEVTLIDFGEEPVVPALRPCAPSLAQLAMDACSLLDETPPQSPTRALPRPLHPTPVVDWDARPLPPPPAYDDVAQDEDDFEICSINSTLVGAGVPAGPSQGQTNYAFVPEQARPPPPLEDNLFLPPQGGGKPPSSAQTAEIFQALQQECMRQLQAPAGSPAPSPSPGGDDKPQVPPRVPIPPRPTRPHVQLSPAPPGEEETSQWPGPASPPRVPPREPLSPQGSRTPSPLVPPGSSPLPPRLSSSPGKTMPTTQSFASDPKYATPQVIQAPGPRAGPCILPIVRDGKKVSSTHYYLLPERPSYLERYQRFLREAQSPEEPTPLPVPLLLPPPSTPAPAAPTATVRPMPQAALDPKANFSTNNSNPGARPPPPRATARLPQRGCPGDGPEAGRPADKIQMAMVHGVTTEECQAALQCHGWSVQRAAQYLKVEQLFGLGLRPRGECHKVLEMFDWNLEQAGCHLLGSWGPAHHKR
In short: (§1)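 Steps: harvest and lyse cells; label lysate directly with ATP-biotin probe; identify and quantitate probe-bound kinases by ACTIVX.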

AurB = AurB (Homo sapiens (Human), UniProt Q96GD4)
In short: as §1

BLK = BLK (Homo sapiens (Human), UniProt P51451)
In short: as §1

BRAF = BRAF (Homo sapiens (Human), UniProt P15056)
In short: as §1

CDC2 = CDC2 (Homo sapiens (Human), UniProt P06493)
Chain of CDC2 (P06493 whole entry): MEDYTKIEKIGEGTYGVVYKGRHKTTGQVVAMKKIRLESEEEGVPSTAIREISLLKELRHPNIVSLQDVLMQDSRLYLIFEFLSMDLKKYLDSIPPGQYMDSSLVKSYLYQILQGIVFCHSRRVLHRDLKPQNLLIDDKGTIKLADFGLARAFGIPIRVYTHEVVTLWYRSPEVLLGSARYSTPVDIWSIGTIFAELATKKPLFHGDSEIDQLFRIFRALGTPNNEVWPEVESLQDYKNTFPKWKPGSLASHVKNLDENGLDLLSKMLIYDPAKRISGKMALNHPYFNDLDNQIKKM
In short: as §1

CDK6 = CDK6 (Homo sapiens (Human), UniProt Q00534)
In short: as §1

CK2a1 = CK2a1 (Homo sapiens (Human), UniProt P68400)
In short: as §1

CaMK4 = CaMK4 (Homo sapiens (Human), UniProt Q16566)
In short: as §1

FRK = FRK (Homo sapiens (Human), UniProt P42685)
In short: as §1

FYN, SRC, YES = tested on: FYN, SRC, YES
In short: as §1

ILK = ILK (Homo sapiens (Human), UniProt Q13418)
In short: as §1

KHS1 = KHS1 (Homo sapiens (Human), UniProt Q9Y4K4)
In short: as §1

MAP2K1 = MAP2K1 (Homo sapiens (Human), UniProt Q02750)
In short: as §1

MAP2K6 = MAP2K6 (Homo sapiens (Human), UniProt P52564)
Chain of MAP2K6 (P52564 whole entry): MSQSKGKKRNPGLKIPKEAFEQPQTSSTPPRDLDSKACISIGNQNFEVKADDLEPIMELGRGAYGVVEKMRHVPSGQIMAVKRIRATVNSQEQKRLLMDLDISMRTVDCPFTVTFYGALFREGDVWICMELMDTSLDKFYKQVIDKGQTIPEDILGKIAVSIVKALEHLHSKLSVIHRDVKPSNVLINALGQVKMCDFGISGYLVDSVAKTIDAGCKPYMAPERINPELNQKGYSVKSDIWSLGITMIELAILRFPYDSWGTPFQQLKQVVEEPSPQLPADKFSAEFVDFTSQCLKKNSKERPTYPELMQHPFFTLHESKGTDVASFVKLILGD
In short: as §1

MAP3K15, MAP3K5, MAP3K6 = tested on: MAP3K15, MAP3K5, MAP3K6
In short: as §1

MAP3K2 = MAP3K2 (Homo sapiens (Human), UniProt Q9Y2U5)
In short: as §1

MAP3K4 = MAP3K4 (Homo sapiens (Human), UniProt Q9Y6R4)
In short: as §1

MAP3K5 = MAP3K5 (Homo sapiens (Human), UniProt Q99683)
In short: as §1

MAP3K6 = MAP3K6 (Homo sapiens (Human), UniProt O95382)
In short: as §1

MARK1, MARK2 = tested on: MARK1, MARK2
In short: as §1

MAST1, MAST2 = tested on: MAST1, MAST2
In short: as §1

MASTL = MASTL (Homo sapiens (Human), UniProt Q96GX5)
Chain of MASTL (Q96GX5 whole entry): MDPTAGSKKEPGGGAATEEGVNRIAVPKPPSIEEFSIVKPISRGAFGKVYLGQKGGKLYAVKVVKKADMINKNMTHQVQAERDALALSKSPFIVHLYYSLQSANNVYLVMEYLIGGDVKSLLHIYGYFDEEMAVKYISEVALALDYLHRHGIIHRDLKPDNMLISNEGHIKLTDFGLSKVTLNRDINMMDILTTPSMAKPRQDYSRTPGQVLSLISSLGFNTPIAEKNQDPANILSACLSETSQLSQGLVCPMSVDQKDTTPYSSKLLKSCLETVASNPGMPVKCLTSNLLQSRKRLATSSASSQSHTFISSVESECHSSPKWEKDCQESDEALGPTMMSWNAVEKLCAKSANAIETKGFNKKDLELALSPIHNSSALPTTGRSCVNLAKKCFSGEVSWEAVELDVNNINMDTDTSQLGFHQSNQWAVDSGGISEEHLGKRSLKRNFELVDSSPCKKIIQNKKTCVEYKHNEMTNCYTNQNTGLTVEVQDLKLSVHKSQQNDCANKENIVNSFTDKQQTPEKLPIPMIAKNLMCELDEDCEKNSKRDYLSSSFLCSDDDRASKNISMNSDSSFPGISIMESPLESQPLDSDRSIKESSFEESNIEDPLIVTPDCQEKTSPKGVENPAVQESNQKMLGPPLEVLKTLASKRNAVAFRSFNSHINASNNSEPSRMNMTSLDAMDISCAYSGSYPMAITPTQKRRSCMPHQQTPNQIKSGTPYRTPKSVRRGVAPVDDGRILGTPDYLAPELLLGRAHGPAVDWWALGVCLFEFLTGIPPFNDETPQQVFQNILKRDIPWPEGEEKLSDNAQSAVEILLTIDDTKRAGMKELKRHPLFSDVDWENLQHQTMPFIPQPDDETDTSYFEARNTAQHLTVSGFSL
In short: as §1

MYO3A, MYO3B = tested on: MYO3A, MYO3B
In short: as §1

NEK1 = NEK1 (Homo sapiens (Human), UniProt Q96PY6)
In short: as §1

NEK3 = NEK3 (Homo sapiens (Human), UniProt P51956)
In short: as §1

NEK4 = NEK4 (Homo sapiens (Human), UniProt P51957)
In short: as §1

NEK6, NEK7 = tested on: NEK6, NEK7
In short: as §1

NEK9 = NEK9 (Homo sapiens (Human), UniProt Q8TD19)
Chain of NEK9 (Q8TD19 whole entry): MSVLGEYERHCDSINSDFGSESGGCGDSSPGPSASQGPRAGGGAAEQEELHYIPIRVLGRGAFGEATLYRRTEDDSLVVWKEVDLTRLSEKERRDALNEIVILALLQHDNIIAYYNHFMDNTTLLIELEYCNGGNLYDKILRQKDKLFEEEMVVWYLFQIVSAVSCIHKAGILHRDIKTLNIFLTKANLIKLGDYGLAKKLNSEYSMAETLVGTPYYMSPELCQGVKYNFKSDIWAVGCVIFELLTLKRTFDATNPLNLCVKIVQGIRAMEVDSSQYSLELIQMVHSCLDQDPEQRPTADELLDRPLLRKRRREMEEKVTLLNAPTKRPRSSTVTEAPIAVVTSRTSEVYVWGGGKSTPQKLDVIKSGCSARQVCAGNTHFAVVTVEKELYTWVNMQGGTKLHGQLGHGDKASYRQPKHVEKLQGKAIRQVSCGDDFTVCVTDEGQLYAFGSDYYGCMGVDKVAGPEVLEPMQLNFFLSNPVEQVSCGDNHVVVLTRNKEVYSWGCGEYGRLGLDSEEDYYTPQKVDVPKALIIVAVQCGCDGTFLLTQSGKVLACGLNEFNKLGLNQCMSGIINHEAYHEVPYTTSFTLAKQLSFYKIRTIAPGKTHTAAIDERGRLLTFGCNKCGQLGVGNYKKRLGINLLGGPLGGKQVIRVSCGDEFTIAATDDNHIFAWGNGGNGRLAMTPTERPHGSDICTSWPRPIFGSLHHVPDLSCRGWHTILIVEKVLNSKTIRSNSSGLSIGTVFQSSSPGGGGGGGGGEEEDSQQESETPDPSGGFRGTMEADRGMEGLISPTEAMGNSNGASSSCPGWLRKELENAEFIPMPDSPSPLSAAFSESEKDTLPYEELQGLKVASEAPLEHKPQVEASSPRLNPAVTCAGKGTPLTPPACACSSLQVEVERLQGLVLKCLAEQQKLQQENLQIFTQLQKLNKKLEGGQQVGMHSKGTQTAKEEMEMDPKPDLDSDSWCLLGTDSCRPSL
In short: as §1

NLK = NLK (Homo sapiens (Human), UniProt Q9UBE8)
In short: as §1

OSR1 = OSR1 (Homo sapiens (Human), UniProt O95747)
In short: as §1

PEK = PEK (Homo sapiens (Human), UniProt Q9NZJ5)
In short: as §1

PKN1 = PKN1 (Homo sapiens (Human), UniProt Q16512)
In short: as §1

SNRK = SNRK (Homo sapiens (Human), UniProt Q9NRH2)
Chain of SNRK (Q9NRH2 whole entry): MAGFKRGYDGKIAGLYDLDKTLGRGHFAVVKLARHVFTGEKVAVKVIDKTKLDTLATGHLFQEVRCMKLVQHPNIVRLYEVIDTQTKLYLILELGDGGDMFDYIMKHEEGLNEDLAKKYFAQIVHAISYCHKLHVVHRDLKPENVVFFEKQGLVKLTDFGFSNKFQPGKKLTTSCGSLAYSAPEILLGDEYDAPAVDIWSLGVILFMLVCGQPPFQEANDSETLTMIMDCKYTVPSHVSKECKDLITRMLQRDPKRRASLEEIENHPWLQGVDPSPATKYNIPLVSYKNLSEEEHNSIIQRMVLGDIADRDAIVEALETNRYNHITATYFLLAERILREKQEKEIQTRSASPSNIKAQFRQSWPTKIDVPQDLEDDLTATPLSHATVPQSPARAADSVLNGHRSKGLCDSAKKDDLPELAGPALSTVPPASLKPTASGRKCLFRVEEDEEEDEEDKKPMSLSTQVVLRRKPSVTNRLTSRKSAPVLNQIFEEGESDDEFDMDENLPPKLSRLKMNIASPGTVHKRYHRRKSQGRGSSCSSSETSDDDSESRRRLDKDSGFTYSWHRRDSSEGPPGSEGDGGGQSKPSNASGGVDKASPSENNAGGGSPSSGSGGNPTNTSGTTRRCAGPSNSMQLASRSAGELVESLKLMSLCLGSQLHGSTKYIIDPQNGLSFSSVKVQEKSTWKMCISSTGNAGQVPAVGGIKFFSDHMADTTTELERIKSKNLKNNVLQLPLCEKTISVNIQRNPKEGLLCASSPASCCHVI
In short: as §1

SRC = SRC (Homo sapiens (Human), UniProt P12931)
In short: as §1

SRPK1, SRPK2 = tested on: SRPK1, SRPK2
In short: as §1

STLK6 = STLK6 (Homo sapiens (Human), UniProt Q9C0K7)
In short: as §1

TLK1 = TLK1 (Homo sapiens (Human), UniProt Q9UKI8)
Chain of TLK1 (Q9UKI8 whole entry): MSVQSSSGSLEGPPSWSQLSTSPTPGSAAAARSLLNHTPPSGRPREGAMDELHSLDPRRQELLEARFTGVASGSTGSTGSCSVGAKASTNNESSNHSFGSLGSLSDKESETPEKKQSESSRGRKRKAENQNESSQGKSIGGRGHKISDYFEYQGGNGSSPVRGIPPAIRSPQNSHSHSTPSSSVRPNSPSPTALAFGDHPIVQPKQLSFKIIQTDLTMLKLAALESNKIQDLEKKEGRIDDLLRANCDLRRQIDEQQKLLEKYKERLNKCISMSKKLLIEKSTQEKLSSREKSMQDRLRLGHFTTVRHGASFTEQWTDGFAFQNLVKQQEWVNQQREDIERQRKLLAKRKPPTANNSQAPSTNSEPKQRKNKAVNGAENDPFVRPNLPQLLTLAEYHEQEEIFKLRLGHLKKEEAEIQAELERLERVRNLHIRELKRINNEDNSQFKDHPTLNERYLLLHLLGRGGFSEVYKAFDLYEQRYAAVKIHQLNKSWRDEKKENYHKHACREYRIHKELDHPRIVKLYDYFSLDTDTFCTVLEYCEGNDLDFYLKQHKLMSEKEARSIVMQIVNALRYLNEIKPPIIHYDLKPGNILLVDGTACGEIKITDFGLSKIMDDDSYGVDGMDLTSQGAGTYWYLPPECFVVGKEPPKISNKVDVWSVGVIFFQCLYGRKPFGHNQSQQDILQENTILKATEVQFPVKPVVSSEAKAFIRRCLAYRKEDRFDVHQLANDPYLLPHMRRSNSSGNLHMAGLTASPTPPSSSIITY
In short: as §1

TYK2 domain2 = TYK2 domain2 (Homo sapiens (Human), UniProt P29597)
In short: as §1

Wnk1, Wnk2 = tested on: Wnk1, Wnk2
In short: as §1

p38b = p38b (Homo sapiens (Human), UniProt Q15759)
In short: as §1

p38d, p38g = tested on: p38d, p38g
In short: as §1

p70S6K = p70S6K (Homo sapiens (Human), UniProt P23443)
In short: as §1

## C=CC(=O)N1CC[C@@H](Nc2nccc(Nc3ncc(C(=O)Nc4c(C)cccc4C)s3)n2)C1 [Example I-4]
ACK
  % change of MS signal compared to control sample: 27.0% and 22.8%
AurB
  % change of MS signal compared to control sample: −10.1%
BLK
  % change of MS signal compared to control sample: >95%
BRAF
  % change of MS signal compared to control sample: 17.8%
CDC2
  % change of MS signal compared to control sample: −24.9%
CDK6
  % change of MS signal compared to control sample: 7.8%
CK2a1
  % change of MS signal compared to control sample: 24.6%
CaMK4
  % change of MS signal compared to control sample: −7.1%
FRK
  % change of MS signal compared to control sample: 87.5%
FYN, SRC, YES
  % change of MS signal compared to control sample: 97.4%
ILK
  % change of MS signal compared to control sample: −19.1%
KHS1
  % change of MS signal compared to control sample: −2.1%
MAP2K1
  % change of MS signal compared to control sample: −31.6%
MAP2K6
  % change of MS signal compared to control sample: −18.0% and −10.7%
MAP3K15, MAP3K5, MAP3K6
  % change of MS signal compared to control sample: 2.8%
MAP3K2
  % change of MS signal compared to control sample: 12.1%
MAP3K4
  % change of MS signal compared to control sample: −20.5%
MAP3K5
  % change of MS signal compared to control sample: −10.7%
MAP3K6
  % change of MS signal compared to control sample: 10.9%
MARK1, MARK2
  % change of MS signal compared to control sample: 17.1%
MAST1, MAST2
  % change of MS signal compared to control sample: −62.1%
MASTL
  % change of MS signal compared to control sample: −2.9% and −0.3%
MYO3A, MYO3B
  % change of MS signal compared to control sample: 15.9%
NEK1
  % change of MS signal compared to control sample: 7.3%
NEK3
  % change of MS signal compared to control sample: 3.5%
NEK4
  % change of MS signal compared to control sample: 12.3%
NEK6, NEK7
  % change of MS signal compared to control sample: 3.7%
NEK9
  % change of MS signal compared to control sample: −0.1% and 4.4%
NLK
  % change of MS signal compared to control sample: 6.7%
OSR1
  % change of MS signal compared to control sample: 26.7%
PEK
  % change of MS signal compared to control sample: −44.9%
PKN1
  % change of MS signal compared to control sample: 17.4%
SNRK
  % change of MS signal compared to control sample: 35.3% and 61.9%
SRC
  % change of MS signal compared to control sample: >90%
SRPK1, SRPK2
  % change of MS signal compared to control sample: −14.7%
STLK6
  % change of MS signal compared to control sample: 7.4%
TLK1
  % change of MS signal compared to control sample: 2.2% and 8.2%
TYK2 domain2
  % change of MS signal compared to control sample: −3.8%
Wnk1, Wnk2
  % change of MS signal compared to control sample: 7.8%
p38b
  % change of MS signal compared to control sample: −29.6%
p38d, p38g
  % change of MS signal compared to control sample: −2.7%
p70S6K
  % change of MS signal compared to control sample: −102.3%
